Results on one molecule are retold here after paper PMC9448386, “Discovery of novel conjugates of quinoline and thiazolidinone urea as potential anti-colorectal cancer agent” (Journal of Enzyme Inhibition and Medicinal Chemistry, 2022).

In series [1] the target is MST1R (Homo sapiens, UniProt Q04912). The experiment in a line: Mobility shift assay, MST1R kinase inhibition. In kind it is biochemical. To be noted: mean of two independent experiments. The method, then: (§1) Kinase inhibitory activity against HGFR, MST1R, ABL, PDGFRβ, AXL, FLT3, RET, c-Src, and VEGFR-2 was evaluated by the mobility shift assay. Detailed operation could be found in our previous research.
MST1R, sequence (Q04912 25-1400): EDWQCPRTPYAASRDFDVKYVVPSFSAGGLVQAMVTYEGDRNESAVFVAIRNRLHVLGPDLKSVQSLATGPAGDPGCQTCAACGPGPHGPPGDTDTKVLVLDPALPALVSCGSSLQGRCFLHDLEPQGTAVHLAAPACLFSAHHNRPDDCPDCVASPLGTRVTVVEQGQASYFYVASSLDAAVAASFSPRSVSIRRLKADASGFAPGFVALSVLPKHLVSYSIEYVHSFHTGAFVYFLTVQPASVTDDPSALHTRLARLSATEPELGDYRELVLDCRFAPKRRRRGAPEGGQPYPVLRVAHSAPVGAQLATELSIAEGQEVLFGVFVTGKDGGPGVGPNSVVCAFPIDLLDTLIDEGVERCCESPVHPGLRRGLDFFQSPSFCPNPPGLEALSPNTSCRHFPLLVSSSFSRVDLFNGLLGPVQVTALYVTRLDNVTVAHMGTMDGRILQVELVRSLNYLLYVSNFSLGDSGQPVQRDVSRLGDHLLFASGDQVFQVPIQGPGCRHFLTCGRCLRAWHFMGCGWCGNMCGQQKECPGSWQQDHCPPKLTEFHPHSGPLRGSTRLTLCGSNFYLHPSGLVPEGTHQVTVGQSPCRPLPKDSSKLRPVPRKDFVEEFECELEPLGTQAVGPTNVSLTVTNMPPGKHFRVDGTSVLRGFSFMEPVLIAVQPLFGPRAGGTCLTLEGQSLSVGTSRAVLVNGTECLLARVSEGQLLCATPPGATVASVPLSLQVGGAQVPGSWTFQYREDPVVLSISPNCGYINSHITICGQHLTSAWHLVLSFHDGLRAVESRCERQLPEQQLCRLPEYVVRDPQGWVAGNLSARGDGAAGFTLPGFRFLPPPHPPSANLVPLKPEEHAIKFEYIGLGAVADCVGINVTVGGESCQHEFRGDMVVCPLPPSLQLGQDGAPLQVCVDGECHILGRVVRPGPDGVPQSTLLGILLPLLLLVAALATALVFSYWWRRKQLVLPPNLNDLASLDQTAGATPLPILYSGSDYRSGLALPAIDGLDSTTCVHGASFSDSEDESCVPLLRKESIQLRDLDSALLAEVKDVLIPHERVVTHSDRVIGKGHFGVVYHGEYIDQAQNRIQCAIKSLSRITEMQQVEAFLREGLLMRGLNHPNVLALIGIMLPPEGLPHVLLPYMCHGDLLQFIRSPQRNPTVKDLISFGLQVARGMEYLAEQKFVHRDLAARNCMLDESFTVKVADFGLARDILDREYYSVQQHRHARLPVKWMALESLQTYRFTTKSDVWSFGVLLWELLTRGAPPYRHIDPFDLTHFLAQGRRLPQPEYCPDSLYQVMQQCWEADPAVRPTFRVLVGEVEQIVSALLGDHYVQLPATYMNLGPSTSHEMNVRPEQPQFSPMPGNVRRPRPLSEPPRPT

Series [2] concerns HCT-116 cells. The experiment in a line: MTT assay, cytotoxic activity against HCT-116. To be noted: Homo sapiens, average of three separate determinations, SD shown. In kind it is cell-based. The source says:
(§2) Taking lead compound BC2021-104511-15i, Fruquintinib and Regorafenib as positive controls, the cytotoxic activity against HT-29, HCT-116, COLO-205 and FHC cell lines by MTT assay. Detailed operation could be found in our previous study.

The target in series [3] is VEGFR-2 (Homo sapiens, UniProt P35968). As to the kind of experiment: Mobility shift assay, VEGFR-2. To be noted: mean of two independent experiments, SD shown. In kind it is biochemical. As for the experimental part: as §1
VEGFR-2, sequence (P35968 20-1356): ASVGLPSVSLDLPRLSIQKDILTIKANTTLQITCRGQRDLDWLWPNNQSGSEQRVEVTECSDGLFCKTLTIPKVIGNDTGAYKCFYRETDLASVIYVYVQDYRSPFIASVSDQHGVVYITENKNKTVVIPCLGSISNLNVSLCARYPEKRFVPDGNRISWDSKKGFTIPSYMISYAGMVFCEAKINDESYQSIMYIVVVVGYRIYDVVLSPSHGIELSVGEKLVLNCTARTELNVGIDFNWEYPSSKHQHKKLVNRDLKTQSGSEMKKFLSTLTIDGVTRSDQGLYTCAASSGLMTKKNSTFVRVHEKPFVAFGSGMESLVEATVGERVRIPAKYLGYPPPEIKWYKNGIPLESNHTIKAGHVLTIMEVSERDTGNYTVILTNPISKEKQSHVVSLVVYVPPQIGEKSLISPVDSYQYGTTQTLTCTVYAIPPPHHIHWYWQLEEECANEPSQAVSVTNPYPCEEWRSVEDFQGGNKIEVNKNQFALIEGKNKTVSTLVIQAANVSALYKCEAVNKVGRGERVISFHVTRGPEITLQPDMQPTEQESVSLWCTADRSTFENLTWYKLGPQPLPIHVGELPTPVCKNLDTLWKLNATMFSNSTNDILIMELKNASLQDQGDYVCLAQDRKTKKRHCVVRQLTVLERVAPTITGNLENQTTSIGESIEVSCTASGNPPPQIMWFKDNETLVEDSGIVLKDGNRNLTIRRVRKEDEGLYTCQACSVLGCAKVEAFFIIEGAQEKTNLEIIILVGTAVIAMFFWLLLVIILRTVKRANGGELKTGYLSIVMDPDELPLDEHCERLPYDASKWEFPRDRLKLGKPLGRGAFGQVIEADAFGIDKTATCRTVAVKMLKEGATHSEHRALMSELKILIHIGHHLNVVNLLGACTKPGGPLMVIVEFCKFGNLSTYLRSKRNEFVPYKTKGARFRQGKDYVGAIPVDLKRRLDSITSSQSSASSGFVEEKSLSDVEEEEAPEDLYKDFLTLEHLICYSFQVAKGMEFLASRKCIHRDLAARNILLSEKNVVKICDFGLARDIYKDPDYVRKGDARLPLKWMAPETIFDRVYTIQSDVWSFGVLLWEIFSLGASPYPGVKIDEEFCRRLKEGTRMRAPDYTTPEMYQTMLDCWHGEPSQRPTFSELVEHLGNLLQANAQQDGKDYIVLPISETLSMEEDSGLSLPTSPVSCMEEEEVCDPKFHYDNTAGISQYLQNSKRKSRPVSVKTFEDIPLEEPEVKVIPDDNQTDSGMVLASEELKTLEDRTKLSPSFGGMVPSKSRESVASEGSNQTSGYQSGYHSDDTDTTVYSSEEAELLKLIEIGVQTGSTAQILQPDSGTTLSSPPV
The test system of series [4] is HT-29 cells. As to the kind of experiment: MTT assay, cytotoxic activity against HT-29. To be noted: Homo sapiens, HT-29, average of three separate determinations, SD shown. It counts as cell-based, human.
Source text: as §2
Background: Formazan colour is commonly taken as a measure of viable cells.

The target of series [5] is T1, AXL (Homo sapiens, UniProt P30530).
T1 sequence (P30530 26-894): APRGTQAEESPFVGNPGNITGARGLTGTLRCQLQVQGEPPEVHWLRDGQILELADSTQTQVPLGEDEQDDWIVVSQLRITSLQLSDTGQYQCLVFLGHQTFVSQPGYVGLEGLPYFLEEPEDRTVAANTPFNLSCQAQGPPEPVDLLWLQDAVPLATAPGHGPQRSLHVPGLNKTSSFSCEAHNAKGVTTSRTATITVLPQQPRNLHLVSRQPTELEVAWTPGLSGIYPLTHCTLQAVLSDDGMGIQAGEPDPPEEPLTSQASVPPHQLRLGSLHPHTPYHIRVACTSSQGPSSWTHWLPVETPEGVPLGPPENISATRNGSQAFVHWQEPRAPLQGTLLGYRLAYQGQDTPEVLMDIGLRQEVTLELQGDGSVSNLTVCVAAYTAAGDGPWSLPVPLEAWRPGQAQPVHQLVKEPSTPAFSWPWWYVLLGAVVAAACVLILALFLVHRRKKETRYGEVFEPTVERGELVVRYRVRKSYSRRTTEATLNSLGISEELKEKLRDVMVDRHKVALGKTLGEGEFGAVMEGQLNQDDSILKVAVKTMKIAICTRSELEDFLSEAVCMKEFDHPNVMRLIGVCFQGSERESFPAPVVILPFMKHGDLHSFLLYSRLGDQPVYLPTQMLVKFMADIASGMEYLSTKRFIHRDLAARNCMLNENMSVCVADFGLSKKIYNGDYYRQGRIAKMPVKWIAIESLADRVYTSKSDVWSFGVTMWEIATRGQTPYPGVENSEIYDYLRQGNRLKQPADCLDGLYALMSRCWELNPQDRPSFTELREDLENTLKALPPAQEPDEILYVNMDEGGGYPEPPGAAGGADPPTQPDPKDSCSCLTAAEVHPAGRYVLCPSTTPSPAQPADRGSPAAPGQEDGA
As to the kind of experiment: Mobility shift assay, AXL. In kind it is biochemical. To be noted: mean of two independent experiments, SD shown. As for the experimental part:
as §1

The target of series [6] is ABL (Homo sapiens, UniProt P00519). The experiment in a line: Mobility shift assay, ABL. It counts as biochemical. To be noted: mean of two independent experiments, SD shown. As for the experimental part: as §1
The target in series [7] is PDGFRβ (Homo sapiens, UniProt P09619). As to the kind of experiment: Mobility shift assay, PDGFRβ. In kind it is biochemical. To be noted: mean of two independent experiments, SD shown. The method, then: as §1
The subject of series [8] is COLO 205 cells. The experiment in a line: MTT assay, cytotoxic activity against COLO 205. In kind it is cell-based. To be noted: Homo sapiens, COLO 205; MTT; average of three separate determinations, SD shown.
Source text: as §2

The target in series [9] is HGFR (Homo sapiens, UniProt P08581). The experiment in a line: Mobility shift assay, HGFR kinase inhibition. To be noted: mean of two independent experiments. In kind it is biochemical. The method, then:
as §1

Series [10] has as its target c-Src (Homo sapiens, UniProt P12931). As to the kind of experiment: Mobility shift assay, c-Src. In kind it is biochemical. To be noted: mean of two independent experiments, SD shown. As for the experimental part: as §1
For series [11], the target named is T2, FLT3 (Homo sapiens, UniProt P36888).
T2 sequence (P36888 27-993): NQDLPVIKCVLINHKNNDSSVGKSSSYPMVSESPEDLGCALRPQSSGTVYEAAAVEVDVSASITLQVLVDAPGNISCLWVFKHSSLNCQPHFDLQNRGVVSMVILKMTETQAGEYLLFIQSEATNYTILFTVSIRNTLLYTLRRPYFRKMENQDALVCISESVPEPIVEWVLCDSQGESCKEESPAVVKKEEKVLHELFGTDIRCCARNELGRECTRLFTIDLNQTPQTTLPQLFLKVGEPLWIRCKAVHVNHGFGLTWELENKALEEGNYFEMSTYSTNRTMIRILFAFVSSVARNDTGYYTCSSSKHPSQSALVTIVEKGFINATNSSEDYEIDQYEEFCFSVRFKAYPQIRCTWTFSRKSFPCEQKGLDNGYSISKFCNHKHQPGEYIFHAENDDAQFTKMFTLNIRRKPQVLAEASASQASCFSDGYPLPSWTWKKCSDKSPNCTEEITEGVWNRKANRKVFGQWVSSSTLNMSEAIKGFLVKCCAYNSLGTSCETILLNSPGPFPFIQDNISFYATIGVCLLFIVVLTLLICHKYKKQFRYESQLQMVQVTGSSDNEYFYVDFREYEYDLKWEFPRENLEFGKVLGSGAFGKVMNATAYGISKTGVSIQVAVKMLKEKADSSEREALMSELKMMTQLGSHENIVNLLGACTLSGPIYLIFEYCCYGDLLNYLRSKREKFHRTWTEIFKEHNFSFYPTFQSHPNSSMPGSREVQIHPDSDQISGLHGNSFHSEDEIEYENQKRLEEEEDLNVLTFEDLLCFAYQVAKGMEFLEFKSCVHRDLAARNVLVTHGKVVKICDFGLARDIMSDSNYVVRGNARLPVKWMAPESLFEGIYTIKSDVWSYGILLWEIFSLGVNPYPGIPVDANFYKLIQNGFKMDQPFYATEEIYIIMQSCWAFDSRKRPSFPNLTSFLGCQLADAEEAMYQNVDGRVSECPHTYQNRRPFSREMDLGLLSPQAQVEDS
The experiment in a line: Mobility shift assay, FLT3. In kind it is biochemical. To be noted: mean of two independent experiments, SD shown. As for the experimental part:
as §1

Series [12] addresses RET (Homo sapiens, UniProt P07949). As to the kind of experiment: Mobility shift assay, RET. To be noted: mean of two independent experiments, SD shown. It counts as biochemical. The method, then:
as §1

Series [13] is described as follows: MTT assay, cytotoxicity against FHC cells. It counts as cell-based. To be noted: FHC cells (normal colorectal mucosa epithelial cells); human normal colorectal mucosa epithelial cells; average of three separate determinations. The method, then:
In order to investigate the cell selectivity index, the cytotoxicity of potent compounds against human normal colorectal mucosa epithelial cell FHC cells was determined.
as §2

RET, sequence (P07949 29-1114): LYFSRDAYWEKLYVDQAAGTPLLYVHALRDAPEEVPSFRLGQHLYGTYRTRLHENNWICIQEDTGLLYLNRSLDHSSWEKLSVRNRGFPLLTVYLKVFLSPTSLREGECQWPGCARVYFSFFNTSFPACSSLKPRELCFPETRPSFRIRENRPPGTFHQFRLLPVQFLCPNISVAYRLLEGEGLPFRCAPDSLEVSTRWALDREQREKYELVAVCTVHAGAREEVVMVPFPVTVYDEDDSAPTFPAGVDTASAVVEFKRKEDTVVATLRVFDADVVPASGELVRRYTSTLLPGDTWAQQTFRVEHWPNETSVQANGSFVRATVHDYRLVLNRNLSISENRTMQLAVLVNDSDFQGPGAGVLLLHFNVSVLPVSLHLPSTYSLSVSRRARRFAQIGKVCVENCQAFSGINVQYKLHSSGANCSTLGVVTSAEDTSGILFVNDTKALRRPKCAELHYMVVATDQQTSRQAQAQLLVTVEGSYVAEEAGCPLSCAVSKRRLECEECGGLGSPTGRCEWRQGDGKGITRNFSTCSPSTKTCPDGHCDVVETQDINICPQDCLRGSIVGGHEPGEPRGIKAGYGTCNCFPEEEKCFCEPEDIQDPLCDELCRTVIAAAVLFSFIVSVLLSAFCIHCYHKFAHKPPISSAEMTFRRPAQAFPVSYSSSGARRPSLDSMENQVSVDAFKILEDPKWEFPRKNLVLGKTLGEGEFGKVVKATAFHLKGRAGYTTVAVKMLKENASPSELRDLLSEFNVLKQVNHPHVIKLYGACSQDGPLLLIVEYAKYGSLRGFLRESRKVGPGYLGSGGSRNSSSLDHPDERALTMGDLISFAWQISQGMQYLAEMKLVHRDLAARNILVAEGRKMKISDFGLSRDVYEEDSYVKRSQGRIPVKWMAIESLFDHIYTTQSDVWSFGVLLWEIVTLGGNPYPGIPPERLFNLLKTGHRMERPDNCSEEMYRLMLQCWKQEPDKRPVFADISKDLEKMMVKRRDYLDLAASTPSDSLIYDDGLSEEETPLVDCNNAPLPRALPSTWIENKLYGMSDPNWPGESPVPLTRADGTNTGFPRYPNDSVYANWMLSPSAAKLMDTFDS
c-Src, sequence (P12931 whole entry): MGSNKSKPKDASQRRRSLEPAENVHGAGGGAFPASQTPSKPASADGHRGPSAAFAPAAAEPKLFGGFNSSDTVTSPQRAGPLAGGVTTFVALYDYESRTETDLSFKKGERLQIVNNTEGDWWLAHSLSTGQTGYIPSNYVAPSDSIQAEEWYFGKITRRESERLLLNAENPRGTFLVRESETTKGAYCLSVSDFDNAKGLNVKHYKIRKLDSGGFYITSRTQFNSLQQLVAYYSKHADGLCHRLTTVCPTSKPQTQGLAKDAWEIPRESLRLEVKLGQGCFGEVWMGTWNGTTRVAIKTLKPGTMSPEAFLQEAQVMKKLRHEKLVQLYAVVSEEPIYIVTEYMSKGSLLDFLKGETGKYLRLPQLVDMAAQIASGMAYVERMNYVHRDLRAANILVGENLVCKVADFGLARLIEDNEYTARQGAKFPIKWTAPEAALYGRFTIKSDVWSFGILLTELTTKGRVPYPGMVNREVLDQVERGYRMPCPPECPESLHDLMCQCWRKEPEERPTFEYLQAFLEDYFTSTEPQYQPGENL

In general, IC50 refers to the point on the concentration scale where inhibition reaches its midpoint. Turning to `COCC(=O)N1CCC(Oc2cc3nccc(Oc4ccc(NC(=O)NN5C(=O)CSC5c5c(F)cccc5F)cc4F)c3cc2OC)CC1` (stereo not shown) [Compound 10b, 1–(2-(2,6-Difluorophenyl)-4-oxothiazolidin-3-yl)-3–(3-fluoro-4-((6-methoxy-7-((1–(2-methoxyacetyl)piperidin-4-yl)oxy)quinolin-4-yl)oxy)phenyl)urea], the IC50 in series [1] stood at 0.085 µM; in [2] it was 3.7 ± 0.34 µM; in [3], 2.36 ± 0.18 µM; in [4] it was 3 ± 0.24 µM; in series [5], 1.5 ± 0.15 µM; in series [6], 3.28 ± 0.26 µM. Moreover, the IC50 was 1.2 ± 0.095 µM in [7]; 0.31 ± 0.021 µM in series [8]; 0.18 µM in [9]; 0.69 ± 0.057 µM in series [10]; above 10 µM in [11]; 1.52 ± 0.14 µM in series [12]. The half-maximal inhibitory concentration (IC50) in [13] was above 10 µM.
